Data reported in PubChem BioAssay AID1645865 (Buhrlage Lab, Dana-Farber Cancer Institute and Novartis …, 2021).
Calls of active or inactive are those of the source.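 Rule for the calls: active = maximal inhibition of the USP30 enzyme reaching 30% or more across the dose series; inactive = the rest.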

molecular target: Ubiquitin carboxyl-terminal hydrolase 30 (Homo sapiens) (UniProt Q70CQ3); experiment: inhibitors of ubiquitin-specific protease 30 deubiquitylating enzyme, concentration dependence, in vitro biochemical, validation of primary hits (AID 1645865); details: purified USP30, Ub-rhodamine cleavage, fluorescence, 2 h
Sequence (Q70CQ3 whole entry, looked up): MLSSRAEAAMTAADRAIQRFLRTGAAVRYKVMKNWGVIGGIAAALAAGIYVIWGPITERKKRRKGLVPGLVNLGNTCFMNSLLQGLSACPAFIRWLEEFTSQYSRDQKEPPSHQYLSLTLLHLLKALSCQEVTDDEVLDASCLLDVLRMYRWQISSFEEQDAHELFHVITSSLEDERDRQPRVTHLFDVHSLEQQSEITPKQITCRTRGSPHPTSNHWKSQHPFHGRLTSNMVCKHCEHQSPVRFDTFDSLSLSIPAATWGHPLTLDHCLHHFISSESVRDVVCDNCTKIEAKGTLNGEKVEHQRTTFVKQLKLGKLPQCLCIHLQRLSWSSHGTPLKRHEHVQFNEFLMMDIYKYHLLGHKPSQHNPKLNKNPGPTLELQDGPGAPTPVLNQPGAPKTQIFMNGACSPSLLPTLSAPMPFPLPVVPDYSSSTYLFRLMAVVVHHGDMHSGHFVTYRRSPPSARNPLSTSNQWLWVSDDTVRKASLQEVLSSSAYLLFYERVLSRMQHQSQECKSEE

| Structure (SMILES) | IC50 |
| --- | --- |
| Cc1ccc(-c2c(C(=O)Nc3ccc(S(N)(=O)=O)cc3)oc(=O)c3ccccc23)cc1 | 29.2 µM |
| CC(=O)c1ccc(NC(=O)CC2C(=O)Nc3nc4ccccc4n32)cc1 (centres undefined) | 46.2 µM |
| COc1cccc(-n2ccc(=O)c(-c3nc(-c4ccccc4Cl)no3)n2)c1 | > 50 µM (inactive) |
| O=C(Nc1ccc2c(c1)OCCO2)c1ccc(N2CCCC2=O)cc1 | 42.4 µM |
| C/C=C(\Cl)C1=CC(=O)[C@]23C[C@H]2[C@@]2(C)CO[C@@]1(O)[C@@]3(O)O2 | > 50 µM (inactive) |
| C[C@]12C(=O)N(c3ccc(C(=O)NCc4ccc(F)cc4)cc3)C(=O)N1CCc1c2[nH]c2ccccc12 | 35.8 µM |
| Cc1sc(-c2ccc(Cl)nc2)nc1OC(=O)c1ccc(F)cc1F | 8.06 µM |
| N#C/C(=C\c1ccc(OCc2cccc(C(=O)O)c2)cc1)c1ccc(F)cc1 | > 50 µM (inactive) |
| CC(C)c1cc(Nc2cccc(F)c2)n2nc(-c3cccnc3)nc2n1 | 6.35 µM |
| CC(C)c1ccc(NC(=O)c2cc3ncc(Br)cn3n2)cc1 | > 50 µM (inactive) |
| FC(F)(F)c1ccccc1CCN1CCc2nc3ccc(Cl)cc3cc2C1 | > 50 µM (inactive) |
| COC(=O)c1ccc(NC(=O)CSc2nnc(-c3ccc(O)cc3)n2Cc2ccco2)cc1 | 4.38 µM |
| O=C(Nc1cccc(Cl)c1)N1CCN(c2cc(C(F)(F)F)ccn2)CC1 | 8.77 µM |
| CSc1cccc(C(=O)Nc2ccc(-c3nc4ccccc4[nH]3)cc2)c1 | 2.89 µM |
| Cc1cc(N2CCN(c3ncccn3)CC2)nc2ccc(NC(=O)c3ccncc3)cc12 | 2.68 µM |
| O=C(O)c1ccc(C2Cc3c([nH]c(=O)[nH]c3=O)O2)cc1 (centres undefined) | 9.78 µM |
| Cc1nc2c3ccccc3nc(NCc3ccc4c(c3)OCO4)n2n1 | 32.9 µM |
| CC1(C)CC(n2[nH]c(=O)c3c2NC(=O)CSC3c2ccc(OCc3ccccc3)cc2)CCO1 (centres undefined) | 12 µM |
| COc1ccc(CNC(=O)Nc2cccc3ccccc23)cc1 | 3.81 µM |
| O=C(NCc1ccc2c(c1)OCO2)c1cc(-c2cc(Cl)ccc2O)n[nH]1 | 2.82 µM |
| CCn1cnc2c1c(=O)n(CC(=O)NCc1ccccc1Cl)c(=O)n2Cc1ccccc1 | > 50 µM (inactive) |
| CCNc1nc(SCC(C)=O)nc2sc3c(c12)CCC(C)C3 (centres undefined) | > 50 µM (inactive) |
| O=S(=O)(c1cccc2cccnc12)N(CCc1ccccc1)C1CCN(CCc2ccc(Cl)cc2)CC1 | > 50 µM (inactive) |
| COc1ccc(NC(=O)c2ccc(Nc3nnc(C)c4ccccc34)cc2)cc1 | > 50 µM (inactive) |
| Cc1ccc(C(=O)NCc2ccc(C(=O)Nc3cccc(C)c3)o2)cc1 | 26.9 µM |

| Structure (SMILES) | IC50 |
| --- | --- |
| COc1cccc2cccc(O)c12 | > 50 µM (inactive) |
| CC(=O)c1ccc(NC(=O)c2nc3ccccc3nc2N2CCOCC2)cc1 | > 50 µM (inactive) |
| COc1cccc2cc(C(=O)Nc3nc(-c4ccncc4)cs3)oc12 | 0.161 µM |
| COc1cccc(NC(=O)C2CCN(C(=O)c3cc(-c4cccnc4)n[nH]3)CC2)c1 | > 50 µM (inactive) |
| COc1cnc(-c2ccccn2)nc1Sc1ccc(C)cc1 | 25.7 µM |
| c1csc(CCN2CCc3nc4cccnc4cc3C2)c1 | > 50 µM (inactive) |
| CCN(C(=O)c1cc2c(Cl)nc3ccccc3c2s1)c1ccccc1F | > 50 µM (inactive) |
| Cc1ccc(C)c(-c2cc3c(=O)n(Cc4noc(CN5CCCCC5)n4)ccn3n2)c1 | > 50 µM (inactive) |
| Cc1nn(Cc2ccccc2)c(C)c1C(=O)NC1CCCc2ccccc21 (centres undefined) | > 50 µM (inactive) |
| Cc1ccccc1-c1noc(-c2ccccc2OCC(=O)NC(C)C)n1 | > 50 µM (inactive) |
| C=C1CCC2[C@](C)(CCC[C@]2(C)C(=O)OC)[C@H]1CCc1ccoc1CNC(C)C (some centres undefined) | > 50 µM (inactive) |
| CC(C)c1ccc(NC(=O)COC(=O)c2ccc3[nH]c4c(c3c2)CCCC4)cc1 | 34.1 µM |
| O=C(COc1nsnc1N1CCOCC1)Nc1ccc(F)c(F)c1 | > 50 µM (inactive) |
| Cc1cccc(C(=O)N2CCc3cc(-c4nc(NC(=O)CNc5ccccc5)sc4C)ccc32)c1 | > 50 µM (inactive) |
| CCc1ccc(OCc2nnc(SCC(=O)Nc3ccccc3OC)n2Cc2ccccc2)cc1 | > 50 µM (inactive) |
| CCn1c(CN2CCCC(c3nc(-c4cccnc4)n[nH]3)C2)nc2ccccc21 (centres undefined) | > 50 µM (inactive) |
| CC(=O)c1cccc(NC(=O)c2ccc(-c3csc(C)n3)cc2)c1 | > 50 µM (inactive) |
| CCOc1ccccc1NC(=O)Cn1c(=O)n(CCCC(=O)NCc2ccc(C)cc2)c(=O)c2sccc21 | 2.53 µM |
| COc1ccccc1OCc1ccc(C(=O)Nc2ccc(F)cc2C)cc1 | 28.3 µM |
| O=C(Oc1ccc(-c2cnc3ccccc3n2)cc1)c1ccc(F)cc1 | 18.2 µM |
| CSc1ccccc1C(=O)Nc1sc2c(c1C(N)=O)CCC(C)C2 (centres undefined) | 2.15 µM |
| Cc1ccc(NC(=O)c2sc(=S)n(CCc3ccccc3)c2N)cc1 | 1.74 µM |
| O=C(Cc1cccnc1)Nc1ccc(N2CCN(C3CCCCC3)C2=O)nc1 | > 50 µM (inactive) |
| Cc1ccc(C2c3c(-c4ccccc4O)n[nH]c3C(=O)N2Cc2ccco2)cc1 (centres undefined) | 21.3 µM |
| CCn1c(CNc2ccc(Cl)cc2)nnc1SCC(=O)Nc1ccccc1 | > 50 µM (inactive) |

| Structure (SMILES) | IC50 |
| --- | --- |
| CCn1cnc2c(-c3ccccc3)cn(CC(=O)NCc3ccc4c(c3)OCO4)c2c1=O | 5 µM |
| O=C(NCc1ccc2c(c1)OCO2)c1ccc(C2SCC(=O)N2Cc2ccco2)cc1 (centres undefined) | > 50 µM (inactive) |
| CCn1cc(-c2cc(C(=O)Nc3cnn(Cc4cccc(F)c4)c3)c3ccccc3n2)cn1 | 49.2 µM |
| Cc1ccc(NC(=O)C2CCN(c3cncnc3N3CCCC3)CC2)cc1 | > 50 µM (inactive) |
| N[C@@H](Cc1ccccc1)C(=O)N1CCC2(CC1)CN(C(=O)c1ccc(Cl)cc1)CCO2 | > 50 µM (inactive) |
| Cc1ccc(CNC(=O)CCCn2c(=O)c3sccc3n(CC(=O)OCc3ccccc3)c2=O)cc1 | 2 µM |
| Cc1cnc2nc3c(cc2c1)CN(S(=O)(=O)c1cc(F)ccc1C)CC3 | > 50 µM (inactive) |
| COC(=O)c1c(C)[nH]c(C(=O)C(C)OC(=O)CCC2CCCC2)c1C (centres undefined) | > 50 µM (inactive) |
| CN1CCN(C(=O)c2cc(-c3ccn(-c4ccccc4)n3)n3ccccc23)CC1 | > 50 µM (inactive) |
| Cc1nn(C)c2c1[C@@H](c1ccc(F)c(Br)c1)[C@H](NC(=O)c1ccccc1)C(=O)N2 | > 50 µM (inactive) |
| O=C(Nc1cccc(C(F)(F)F)c1)N1CCCn2c(nc3ccccc32)C1 | 19.7 µM |
| CC(C)(C)n1nc(C2CC2)c(Br)c1NC(=O)c1ccccc1F | 34.1 µM |
| Cc1c(OCC(=O)Nc2nc3ccccc3[nH]2)ccc2c3c(c(=O)oc12)CCC3 | 0.148 µM |
| CC(=O)N1Cc2ccccc2CC2(CCCN(CC3CCOCC3)C2)C1 (centres undefined) | > 50 µM (inactive) |
| O=C(Nc1cc(F)c2nc(N3CCCC3)ccc2c1)c1ccco1 | > 50 µM (inactive) |
| Cc1ccc2c(c1)N(Cc1nc(-c3ccc(F)cc3)no1)C(=O)CO2 | > 50 µM (inactive) |
| COc1ccccc1Nc1ncc(C(=O)NCCc2ccc(Cl)cc2)c2ccccc12 | 2.59 µM |
| O=C(CCc1nnc2n(Cc3ccccc3)c(=O)c3ccccc3n12)N1CCN(c2ccccn2)CC1 | 2.29 µM |
| O=c1c2cnc(N3CCOCC3)nc2ccn1CCc1ccccc1 | 16.7 µM |
| CCCC(=O)N1CCC2(CC1)Nc1ccccc1NC2=O | > 50 µM (inactive) |
| Cc1c(-c2ccccc2)oc2c(C(=O)OCC(=O)Nc3ccccc3F)cccc2c1=O | > 50 µM (inactive) |
| O=C(CSc1cn(Cc2ccccc2)c2ccccc12)Nc1ccc2c(c1)OCCO2 | > 50 µM (inactive) |
| O=C(c1ccc2cc[nH]c2c1)N1CCC(Nc2cccnc2)C1 (centres undefined) | > 50 µM (inactive) |
| COc1ccc(NC(=O)C2CCN(c3cncnc3N(C)C)CC2)cc1OC | > 50 µM (inactive) |
| CC(=O)c1cccc(NC(=O)c2ccc(N3CCCCC3)nn2)c1 | 35.6 µM |

| Structure (SMILES) | IC50 |
| --- | --- |
| CC1(C)Cc2c(sc3nc(Cc4ccccc4)nc(SCC(=O)Nc4ccccc4)c23)CO1 | 1.82 µM |
| CCCCn1c(=O)c(CCC(=O)OCC(=O)Nc2ccc3c(c2)OCCO3)nc2ccccc21 | > 50 µM (inactive) |
| CC(=O)c1ccc(N2C(=O)N(Cc3cccc([N+](=O)[O-])c3)c3ccccc3S2(=O)=O)cc1 | > 50 µM (inactive) |
| COc1ccc(/C=C/c2ccnc3nc(-n4cccc4)nn23)cc1 | > 50 µM (inactive) |
| CCOc1ccc(S(=O)(=O)Nc2ccc[nH]c2=O)cc1 | > 50 µM (inactive) |
| COc1ccc(C)cc1NC(=O)COc1ccc2c(c1)OCO2 | > 50 µM (inactive) |
| CC(C)(C)c1ccc(C(=O)Nc2ccc(Oc3cccnc3)nc2)cc1 | > 50 µM (inactive) |
| Cc1cnnn1-c1ccc(C(=O)Nc2cc(Cl)ccc2Cl)cc1 | 20.7 µM |
| COc1ccc(CNC(=O)C(C)n2nc(-c3ccco3)c(-c3cc(C)no3)cc2=O)cc1 (centres undefined) | > 50 µM (inactive) |
| COc1ccc(OC)c(NC(=O)Cn2c(=O)n(CC3CCC(C(=O)NCCc4ccccc4)CC3)c(=O)c3ccccc32)c1 (centres undefined) | 1.77 µM |
| Cc1ccc(Nc2nc(C(=O)NCc3ccc4c(c3)OCO4)cc3occc23)cc1Cl | > 50 µM (inactive) |
| O=C(COc1ccc(F)cc1)Nc1cc(F)c2nc(N3CCOCC3)ccc2c1 | > 50 µM (inactive) |
| CCOC(=O)c1cn(C2CC2)c2cc(N3CCNCC3)c([N+](=O)[O-])cc2c1=O | > 50 µM (inactive) |
| COc1ccc2c(c1)c(N1CCCC1=O)c(C(=O)NCc1cccc(OC)c1OC)n2C | > 50 µM (inactive) |
| COc1ccc(C2CC(c3ccccc3)N(C(=O)C3CC3)c3ncnn32)cc1 (centres undefined) | > 50 µM (inactive) |
| O=C(Nc1cccc(Cl)c1)c1ncn2c1CNS(=O)(=O)c1ccccc1-2 | 12.3 µM |
| Cc1ccc(NC(=O)c2cnc3c(c2)c(=O)n(C)c(=O)n3C)cc1 | 1.71 µM |
| CCNc1oc(-c2ccc(S(=O)(=O)N3CCCCC3)cc2)nc1C#N | 21.9 µM |
| COc1cccc(-n2c(CNCc3cccnc3)nc3ccc([N+](=O)[O-])cc3c2=O)c1 | 25.2 µM |
| COc1ccc(-c2nnc(SCc3ccccc3C#N)o2)c(OC)c1 | 49.7 µM |
| Cc1sc(-c2cccnc2)nc1OC(=O)c1ccc(Cl)c(Cl)c1 | > 50 µM (inactive) |
| COc1ccc(NC(=O)C2CC(=O)Nc3cc(-c4ccccc4)nn32)cc1 (centres undefined) | 22.5 µM |
| COc1ccccc1NC(=O)Nc1ccc(NC(=O)c2ccccc2O)cc1 | 29 µM |
| CC(NC(=O)c1ccccc1)c1nc2ccccc2n1CC(=O)Nc1ccc2c(c1)OCO2 (centres undefined) | 2.06 µM |
